SMILES strings stand for the structures.

In the test the target is T1, human active recombinant p38α-6His tagged (Homo sapiens, UniProt Q16539).
T1 construct: 6His
T1 sequence (Q16539 whole entry): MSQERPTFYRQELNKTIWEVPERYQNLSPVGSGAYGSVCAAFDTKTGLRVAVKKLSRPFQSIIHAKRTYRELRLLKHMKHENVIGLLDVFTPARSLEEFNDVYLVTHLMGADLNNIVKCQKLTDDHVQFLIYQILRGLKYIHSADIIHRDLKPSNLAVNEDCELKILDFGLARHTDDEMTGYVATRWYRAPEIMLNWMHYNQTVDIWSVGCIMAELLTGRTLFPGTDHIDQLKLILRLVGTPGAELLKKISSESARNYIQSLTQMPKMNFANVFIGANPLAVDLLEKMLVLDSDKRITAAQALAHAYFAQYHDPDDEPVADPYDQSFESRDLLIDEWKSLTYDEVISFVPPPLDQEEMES
Nature of the test: p38 Alpha Enzyme Assay (AlphaScreen, biotinylated-ATF2 substrate). Format: biochemical. The conditions noted are these: pre-incubated 4 hours at 37° C., reaction initiated with ATP; 0.5 nM enzyme; read-out: p38 pIC50 (converted).
On to `Cc1c(F)cc(C(=O)NC2CC2)cc1-c1ccc2c(=O)n(CC3CC3)cc(CN3CCCN(CCO)CC3)c2c1` [Example 78, N-Cyclopropyl-3-(2-(cyclopropylmethyl)-4-((4-(2-hydroxyethyl)-1,4-diazepan-1-yl)methyl)-1-oxo-1,2-dihydroisoquinolin-6-yl)-5-fluoro-4-methylbenzamide], for which the IC50 was 158 pM.
With `Cc1c(F)cc(C(=O)NC2CC2)cc1-c1ccc2c(=O)n(CC3CC3)cc(CN3CCC[N+]([O-])(CCO)CC3)c2c1` (stereo not shown) [Example 79, 4-((6-(5-(Cyclopropylcarbamoyl)-3-fluoro-2-methylphenyl)-2-(cyclopropylmethyl)-1-oxo-1,2-dihydroisoquinolin-4-yl)methyl)-1-(2-hydroxyethyl)-1,4-diazepane 1-oxide] the figure was 631 pM; with `Cc1c(F)cc(C(=O)NC2CC2)cc1-c1ccc2c(=O)n(CC3CC3)cc(CN3C[C@@H](C)N[C@@H](C)C3)c2c1` [Example 80, N-Cyclopropyl-3-(2-(cyclopropylmethyl)-4-(((3S,5R)-3,5-dimethylpiperazin-1-yl)methyl)-1-oxo-1,2-dihydroisoquinolin-6-yl)-5-fluoro-4-methylbenzamide], 316 pM; with `CNC1CCN(Cc2cn(CC3CC3)c(=O)c3ccc(-c4cc(C(=O)NC5CC5)cc(F)c4C)cc23)CC1` [Example 81, N-Cyclopropyl-3-(2-(cyclopropylmethyl)-4-((4-(methylamino)piperidin-1-yl)methyl)-1-oxo-1,2-dihydroisoquinolin-6-yl)-5-fluoro-4-methylbenzamide], 100 pM.
With `Cc1c(F)cc(C(=O)NC2CC2)cc1-c1ccc2c(=O)n(CC3CC3)cc(CN3CCN[C@@H](C)C3)c2c1` [Example 82, (S)—N-Cyclopropyl-3-(2-(cyclopropylmethyl)-4-((3-methylpiperazin-1-yl)methyl)-1-oxo-1,2-dihydroisoquinolin-6-yl)-5-fluoro-4-methylbenzamide] the figure was 100 pM; with `Cc1c(F)cc(C(=O)NC2CC2)cc1-c1ccc2c(=O)n(CC3CC3)cc(CN3CCC(N)CC3)c2c1` [Example 83, 3-(4-((4-Aminopiperidin-1-yl)methyl)-2-(cyclopropylmethyl)-1-oxo-1,2-dihydroisoquinolin-6-yl)-N-cyclopropyl-5-fluoro-4-methylbenzamide], 79.4 pM; with `Cc1c(F)cc(C(=O)NC2CC2)cc1-c1ccc2c(=O)n(CC3CC3)cc(CN3CCC(NC(C)C)CC3)c2c1` [Example 84, N-Cyclopropyl-3-(2-(cyclopropylmethyl)-4-((4-(isopropylamino)piperidin-1-yl)methyl)-1-oxo-1,2-dihydroisoquinolin-6-yl)-5-fluoro-4-methylbenzamide], 200 pM.
In the case of `Cc1c(F)cc(C(=O)NC2CC2)cc1-c1ccc2c(=O)n(CC3CC3)cc(CN3CCN[C@@H](CO)C3)c2c1` [Example 85, (R)—N-Cyclopropyl-3-(2-(cyclopropylmethyl)-4-((3-(hydroxymethyl)piperazin-1-yl)methyl)-1-oxo-1,2-dihydroisoquinolin-6-yl)-5-fluoro-4-methylbenzamide] it was 39.8 pM.
With `Cc1c(F)cc(C(=O)NC2CC2)cc1-c1ccc2c(=O)n(CC3CC3)cc(CN3CCNC[C@H]3C)c2c1` [Example 86, (R)—N-Cyclopropyl-3-(2-(cyclopropylmethyl)-4-((2-methylpiperazin-1-yl)methyl)-1-oxo-1,2-dihydroisoquinolin-6-yl)-5-fluoro-4-methylbenzamide], the IC50 is 79.4 pM.
As for `Cc1c(F)cc(C(=O)NC2CC2)cc1-c1ccc2c(=O)n(CC3CC3)cc(CN3CCN(C)[C@@H](CO)C3)c2c1` [Example 87, (R)—N-Cyclopropyl-3-(2-(cyclopropylmethyl)-4-((3-(hydroxymethyl)-4-methylpiperazin-1-yl)methyl)-1-oxo-1,2-dihydroisoquinolin-6-yl)-5-fluoro-4-methylbenzamide], the IC50 was 63.1 pM.
With `Cc1c(F)cc(C(=O)NC2CC2)cc1-c1ccc2c(=O)n(CC3CC3)cc(CN3CCNCC3)c2c1` [Example 88, N-Cyclopropyl-3-(2-(cyclopropylmethyl)-1-oxo-4-(piperazin-1-ylmethyl)-1,2-dihydroisoquinolin-6-yl)-5-fluoro-4-methylbenzamide] the figure was 63.1 pM; with `Cc1c(F)cc(C(=O)NC2CC2)cc1-c1ccc2c(=O)n(CC3CC3)cc(CNCC3CCNCC3)c2c1` [Example 89, N-Cyclopropyl-3-(2-(cyclopropylmethyl)-1-oxo-4-((piperidin-4-ylmethylamino)methyl)-1,2-dihydroisoquinolin-6-yl)-5-fluoro-4-methylbenzamide], 794 pM.
In the case of `Cc1c(F)cc(C(=O)NC2CC2)cc1-c1ccc2c(=O)n(CC3CC3)cc(CN3CCN(CCO)CC3)c2c1` [Example 90, N-Cyclopropyl-3-(2-(cyclopropylmethyl)-4-((4-(2-hydroxyethyl)piperazin-1-yl)methyl)-1-oxo-1,2-dihydroisoquinolin-6-yl)-5-fluoro-4-methylbenzamide] it was 158 pM.
As to `CCN1CCC(CNCc2cn(CC3CC3)c(=O)c3ccc(-c4cc(C(=O)NC5CC5)cc(F)c4C)cc23)CC1` [Example 91, N-Cyclopropyl-3-(2-(cyclopropylmethyl)-4-(((1-ethylpiperidin-4-yl)methylamino)methyl)-1-oxo-1,2-dihydroisoquinolin-6-yl)-5-fluoro-4-methylbenzamide], the IC50 was 7940 pM.
In the case of `Cc1c(F)cc(C(=O)NC2CC2)cc1-c1ccc2c(=O)n(CC3CC3)cc(CN3CCCNCC3)c2c1` [Example 92, 3-(4-((1,4-Diazepan-1-yl)methyl)-2-(cyclopropylmethyl)-1-oxo-1,2-dihydroisoquinolin-6-yl)-N-cyclopropyl-5-fluoro-4-methylbenzamide] it was 100 pM; in that of `Cc1ccc(C(=O)NC2CC2)cc1-c1ccc2c(=O)n(Cc3cccc(OCCCN(C)C)c3)cc(C)c2c1` [Example 93, N-Cyclopropyl-3-(2-(3-(3-(dimethylamino)propoxy)benzyl)-4-methyl-1-oxo-1,2-dihydroisoquinolin-6-yl)-4-methylbenzamide], 2000 pM.
In the case of `Cc1ccc(C(=O)NC2CC2)cc1-c1ccc2c(=O)n(Cc3cccc(OCCCN(C)C)c3)c(C)cc2c1` [Example 94, N-Cyclopropyl-3-(2-(3-(3-(dimethylamino)propoxy)benzyl)-3-methyl-1-oxo-1,2-dihydroisoquinolin-6-yl)-4-methylbenzamide] it was 3160 pM.
With `Cc1ccc(C(=O)NC2CC2)cc1-c1ccc2c(=O)n(Cc3ccc(CN(C)C)cc3)cc(C)c2c1` [Example 95, N-Cyclopropyl-3-(2-(4-((dimethylamino)methyl)benzyl)-4-methyl-1-oxo-1,2-dihydroisoquinolin-6-yl)-4-methylbenzamide] the figure was 2510 pM; with `Cc1ccc(C(=O)NC2CC2)cc1-c1ccc2c(=O)n(Cc3ccc(CN(C)C)cc3)c(C)cc2c1` [Example 96, N-Cyclopropyl-3-(2-(4-((dimethylamino)methyl)benzyl)-3-methyl-1-oxo-1,2-dihydroisoquinolin-6-yl)-4-methylbenzamide], 10000 pM; with `Cc1ccc(C(=O)NC2CC2)cc1-c1ccc2c(=O)n(Cc3ccc(C4CCNCC4)cc3)cc(C)c2c1` [Example 97, N-Cyclopropyl-4-methyl-3-(4-methyl-1-oxo-2-(4-(piperidin-4-yl)benzyl)-1,2-dihydroisoquinolin-6-yl)benzamide], 251 pM.
Turning to `Cc1ccc(C(=O)NC2CC2)cc1-c1ccc2c(=O)n(Cc3ccc(C4CCNCC4)cc3)c(C)cc2c1` [Example 98, N-Cyclopropyl-4-methyl-3-(3-methyl-1-oxo-2-(4-(piperidin-4-yl)benzyl)-1,2-dihydroisoquinolin-6-yl)benzamide], the IC50 was 2510 pM.
Take `Cc1ccc(C(=O)NC2CC2)cc1-c1ccc2c(=O)n(Cc3ccccc3)cc(CCCN(C)C)c2c1` [Example 99, 3-(2-Benzyl-4-(3-(dimethylamino)propyl)-1-oxo-1,2-dihydroisoquinolin-6-yl)-N-cyclopropyl-4-methylbenzamide]: the IC50 was 398 pM.
`Cc1ccc(C(=O)NC2CC2)cc1-c1ccc2c(=O)n(Cc3ccccc3)cc(CCCN3CCCC3)c2c1` [Example 100, 3-(2-Benzyl-1-oxo-4-(3-(pyrrolidin-1-yl)propyl)-1,2-dihydroisoquinolin-6-yl)-N-cyclopropyl-4-methylbenzamide]: the IC50 was 1000 pM.
In the case of `Cc1ccc(C(=O)NC2CC2)cc1-c1ccc2c(=O)n(CC3CC3)cc(COCCN(C)C)c2c1` [Example 101, N-Cyclopropyl-3-(2-(cyclopropylmethyl)-4-((2-(dimethylamino)ethoxy)methyl)-1-oxo-1,2-dihydroisoquinolin-6-yl)-4-methylbenzamide] it was 3160 pM; in that of `Cc1c(F)cc(C(=O)NC2CC2)cc1-c1ccc2c(=O)n(CC3CC3)cc(CN3CCN[C@H](CO)C3)c2c1` [Example 102, (S)—N-Cyclopropyl-3-(2-(cyclopropylmethyl)-4-((3-(hydroxymethyl)piperazin-1-yl)methyl)-1-oxo-1,2-dihydroisoquinolin-6-yl)-5-fluoro-4-methylbenzamide], 50.1 pM; in that of `Cc1ccc(C(=O)NC2CC2)cc1-c1ccc2c(=O)n(Cc3ccc(S(C)(=O)=O)cc3)cc(CN3CCCN(C)CC3)c2c1` [Example 103, N-Cyclopropyl-4-methyl-3-(4-((4-methyl-1,4-diazepan-1-yl)methyl)-2-(4-(methylsulfonyl)benzyl)-1-oxo-1,2-dihydroisoquinolin-6-yl)benzamide], 126 pM.
In the case of `Cc1ccc(C(=O)NC2CC2)cc1-c1ccc2c(=O)n(Cc3ccc(C(=O)O)cc3)cc(CN3CCCN(C)CC3)c2c1` [Example 104, 4-((6-(5-(Cyclopropylcarbamoyl)-2-methylphenyl)-((4-methyl-1,4-diazepan-1-yl)methyl)-1-oxoisoquinolin-2(1H)-yl)methyl)benzoic acid] it was 200 pM; in that of `Cc1ccc(C(=O)NC2CC2)cc1-c1ccc2c(=O)n(Cc3ccc(C(=O)N(C)C)cc3)cc(CN3CCCN(C)CC3)c2c1` [Example 105, N-Cyclopropyl-3-(2-(4-(dimethylcarbamoyl)benzyl)-4-((4-methyl-1,4-diazepan-1-yl)methyl)-1-oxo-1,2-dihydroisoquinolin-6-yl)-4-methylbenzamide], 158 pM.

Source of the values: patent US8012979B2, “Compounds and their uses 707” (AstraZeneca AB, priority 2007, dated 2011).
